# Where a SMILES comes first, the peptide text is derived from it. [ ]: non-standard residue; d: D form. Dmt = Cc1cc(O)cc(C)c1C[C@H](N)C(=O)O
# Tested on: LUVs with POPC only
# Test: SS-31 binding isotherms by endogenous 2′,6′-Dmt fluorescence
# Settings: even at the highest lipid concentrations used
# Text: The interaction of basic amphipathic peptides with negatively charged membranes depends on the electric field originating from the bilayer surface as well as specific electrostatic and hydrophobic interactions between the peptide and lipids (Fig. S2). The first objective of this study was to quantitatively evaluate the binding of SS-31 to model membranes with specific lipid composition. For spectroscopic analysis of SS-31 binding, we made use of the endogenous spectral properties of the 2′,6′-dimethyltyrosine (2′,6′-Dmt) side chain at the second position in the peptide. Our initial spectral characterization of SS-31 confirmed the feasibility of using endogenous peptide fluorescence to quantify peptide-membrane interactions (supporting Results A and B and Figs. S3 and S4). We therefore proceeded to measure the binding of SS-31 to large unilamellar vesicles (LUVs) containing anionic lipids in a host background of the zwitterionic lipid 1-palmitoyl-2-oleoyl-sn-glycero-3-phosphocholine (POPC, 16:0/18:1 PC). […]
# Figure 2. […] A–C, fluorescence-based measurements. […] Statistical differences within each data set were determined relative to TOCL-containing membranes: •, p < 0.05; ••, p < 0.01. […]
smiles,measurement,value
"Cc1cc(O)cc(C)c1C[C@H](NC(=O)[C@H](N)CCCNC(=N)N)C(=O)N[C@@H](CCCCN)C(=O)N[C@@H](Cc1ccccc1)C(N)=O [SS-31, D-Arg-2′6′-dimethyl-Tyr-Lys-Phe-NH2] (H-[dR][Dmt]KF-NH2)",binding in the absence of anionic lipid,negligible

# From paper PMC7247319, “The mitochondria-targeted peptide SS-31 binds lipid bilayers and modulates surface electrostatics as a key component of its mechanism of action” (The Journal of Biological Chemistry, 2020)
